Measurements taken from patent publication US8143249B2 (Gilead Sciences, Inc., priority 2005, dated 2012).

Experiment: Oral pharmacokinetics/bioavailability of prodrugs vs parent (compound 1) in rats, plasma LC/MS/MS
Assay type: in vivo, Sprague Dawley rats
Conditions: for Cmax: Sprague Dawley
Protocol: The following studies were conducted in order to compare the pharmacokinetics of the parent A2B adenosine receptor antagonist and its corresponding prodrug. The parent compound chosen was the compound of formula A in which R^1 is n-propyl, R^2 is ethyl, R^3 is hydrogen, and R^4 is 3-trifluoromethylphenyl; that is:
The studies were carried out in Sprague Dawley rats. The test compounds were administered orally by gavage to groups of three rats using a single oral dose of the test compound at 2 and 30 mg/kg. All oral doses were prepared either as a suspension in DMSO/ethanol/PEG300/0.1% N-methyl-D-glucamine or as a suspension in 0.5% methylcellulose in water. Blood samples were obtained serially from each rat at 0, 5, 15, 30 min, and then 1, 1.5, 2, 4, 6, 8, and 24 hrs post-dose.
Concentrations of compound 1 and/or the corresponding prodrug in rat plasma were determined by a HPLC tandem mass spectrometric (LC/MS/MS) method. Briefly, 0.1 mL of plasma sample was treated with 0.5 mL of acetonitrile:methanol (9:1, v/v) mixture containing 25 ng of compound 1 having deuterated ethyl at the 3-position in place of ethyl. (Internal Standard, I.S.) to precipitate the protein. The mixture was filtered through a 96-well filter and filtrate was collected and evaporated to dryness on a 96-well plate evaporator. The residue was then reconstituted with 400 μL 20% methanol and subjected to LC/MS/MS analysis. Quantification of compound 1 was achieved by mass spectrometry using Multiple Reaction Monitoring (MRM) mode, monitoring the transitions at m/z 447.1>159.1 for compound 1 and 452.1>159.1 for I.S. The quantification limit of the assay was 0.38 ng/mL for the analysis of the oral dose samples and 10 ng/mL during the analysis of the intravenous dose samples using 0.1 mL of plasma.
Non-compartmental pharmacokinetic parameters were determined using a commercial program WinNonLin Professional, Version 4.1 (Pharsight, Mountain View, Calif.). Plasma concentration at below level of detection was assumed to be zero for the calculation of means and pharmacokinetic parameters.
For oral administration, the maximum concentration (Cmax) and time to reach Cmax (Tmax), AUC(0-1), AUC(0-8) and bioavailability (% F) were determined. Oral bioavailability was determined from the ratio of dose-adjusted AUC(0-8) of the respective oral dose and the mean AUC(0-8) values of the 0.1 and 0.5 mg/kg intravenous doses.
The results are presented below in tabular form. The table provides results obtained by using a suspension of the test compound in a suspension in DMSO/ethanol/PEG300/0.1% N-methyl-D-glucamine in rats.

[1] = unchanged prodrug in rat plasma after single oral gavage dose, suspension in DMSO/ethanol/PEG300/0.1% N-methyl-D-glucamine

**Q.** What does the source list for CCCn1c(=O)c2c(nc(-c3cnn(Cc4cccc(C(F)(F)F)c4)c3)n2COC(=O)C(C)(C)C)n(CC)c1=O [Compound 4, [3-ethyl-2,6-dioxo-1-propyl-8-(1-{[3-(trifluoromethyl)phenyl]methyl}pyrazol-4-yl)-1,3,7-trihydropurin-7-yl]methyl-2,2-dimethylpropanoate]?
**A.** Cmax [1]: < 5 ng/mL; Prodrug Mean Dose Adjusted AUC [1]: Not detectable

**Q.** What does the source list for CCCn1c(=O)c2c(nc(-c3cnn(Cc4cccc(C(F)(F)F)c4)c3)n2COP(=O)(O)O)n(CC)c1=O [Compound 6, [3-ethyl-2,6-dioxo-1-propyl-8-(1-{[3-(trifluoromethyl)phenyl]methyl}-pyrazol-4-yl)(1,3,7-trihydropurin-7-yl)]methyl dihydrogen phosphate]?
**A.** Cmax [1]: < 5 ng/mL; prodrug seen in plasma unmetabolized (rats, oral, result in words): detected in the plasma unmetabolized; Prodrug Mean Dose Adjusted AUC [1]: Not detectable

**Q.** For CCCC(=O)OCn1c(-c2cnn(Cc3cccc(C(F)(F)F)c3)c2)nc2c1c(=O)n(CCC)c(=O)n2CC [Compound 2, [3-ethyl-2,6-dioxo-1-propyl-8-(1-{[3-(trifluoromethyl)phenyl]methyl}pyrazol-4-yl)-1,3,7-trihydropurin-7-yl]methyl butanoate], which Cmax [1] is on record?
**A.** Its Cmax is less than 5 ng/mL.

**Q.** And the “Prodrug Mean Dose Adjusted AUC” value [1]?
**A.** Its value is “Not detectable”.

**Q.** Which results are given for CCCn1c(=O)c2c(nc(-c3cnn(Cc4cccc(C(F)(F)F)c4)c3)n2COC(C)=O)n(CC)c1=O [Compound 3, [3-ethyl-2,6-dioxo-1-propyl-8-(1-{[3-(trifluoromethyl)phenyl]methyl}pyrazol-4-yl)-1,3,7-trihydropurin-7-yl]methyl acetate]?
**A.** Cmax [1]: < 5 ng/mL; Prodrug Mean Dose Adjusted AUC [1]: Not detectable

**Q.** Which Cmax [1] does the source give for CCCn1c(=O)c2c(nc(-c3cnn(Cc4cccc(C(F)(F)F)c4)c3)n2COC(=O)NCCN(C)C)n(CC)c1=O [Compound 10] here?
**A.** The Cmax was less than 5 ng/mL.

**Q.** What about the “prodrug seen in plasma unmetabolized” value (rats, oral, result in words) of the same molecule?
**A.** The value was “detected in the plasma unmetabolized”.

**Q.** And the “Prodrug Mean Dose Adjusted AUC” value [1]?
**A.** The value was “Not detectable”.

**Q.** What does the source list for CCCn1c(=O)c2c(nc(-c3cnn(Cc4cccc(C(F)(F)F)c4)c3)n2COC(=O)N(C)CCN(C)C)n(CC)c1=O [Compound 5]?
**A.** plasma levels of parent compound 1 following oral dosing, compared with oral dosing of the parent itself (rats, oral, result in words): approximately the same; Prodrug Mean Cmax [1]: <5 ng/mL; Prodrug Mean Dose Adjusted AUC [1]: Not detectable
